From ChEMBL document CHEMBL1201862, “PubChem BioAssay data set” (2004)
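Step 1: Grow cells in 96-well plates. Step 2: Expose to compound for 48 hours at 5 concentrations. Step 3: Interpolate endpoints linearly; if unreached, use highest concentration. At the GI50, growth is halved.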 Activity calls are given as the source filed them. No stated cut-off is given here; in the data, active = GI50 up to about 1.1 µM and inactive = higher.

Legend:
Assay in all cases: NCI-60 cell line screen, 48 h
[1] = system: M14
[2] = system: SW-620
[3] = system: OVCAR-3
[4] = system: HCT-116
[5] = system: NCI-H226
[6] = system: SK-MEL-5
[7] = system: RXF 393
[8] = system: ACHN
[9] = system: CAKI-1
[10] = system: SF-268
[11] = system: OVCAR-5
[12] = system: KM12
[13] = system: SK-MEL-28
[14] = system: NCI-H460
[15] = system: NCI-H522
[16] = system: MDA-MB-231
[17] = system: MDA-N
[18] = system: OVCAR-8
[19] = system: EKVX
[20] = system: HOP-62

| Compound | GI50 [1] | GI50 [2] | GI50 [3] | GI50 [4] | GI50 [5] | GI50 [6] | GI50 [7] | GI50 [8] | GI50 [9] | GI50 [10] | GI50 [11] | GI50 [12] | GI50 [13] | GI50 [14] | GI50 [15] | GI50 [16] | GI50 [17] | GI50 [18] | GI50 [19] | GI50 [20] |
| --- | --- | --- | --- | --- | --- | --- | --- | --- | --- | --- | --- | --- | --- | --- | --- | --- | --- | --- | --- | --- |
| CCN(CC)CCCNc1nc2ccccc2[n+]([O-])n1 | > 100 µM (inactive) | > 100 µM (inactive) | > 100 µM (inactive) | > 100 µM (inactive) | > 100 µM (inactive) | > 100 µM (inactive) | > 100 µM (inactive) | > 100 µM (inactive) | > 100 µM (inactive) | > 100 µM (inactive) | > 100 µM (inactive) | > 100 µM (inactive) | > 100 µM (inactive) | > 100 µM (inactive) | > 100 µM (inactive) | > 100 µM (inactive) | > 100 µM (inactive) | > 100 µM (inactive) |  |  |
| COC(=O)c1cc(C#Cc2cc(OC)ccc2OC)ccc1OC | 34.8 µM (inactive) | > 100 µM (inactive) |  |  | 67 µM (inactive) | 24.4 µM (inactive) | 21.3 µM (inactive) | 42.7 µM (inactive) | 60 µM (inactive) | 75.7 µM (inactive) | > 100 µM (inactive) | 43.9 µM (inactive) | > 100 µM (inactive) | 56.8 µM (inactive) | 37.8 µM (inactive) | > 100 µM (inactive) | 30.3 µM (inactive) | 37.1 µM (inactive) | 40.9 µM (inactive) |  |
| C[n+]1ccc2/c(=C\C#N)c3ccccc3n21 | 48.2 µM (inactive) | 35.1 µM (inactive) | 14.6 µM (inactive) | 29.7 µM (inactive) | 32.5 µM (inactive) | 16.7 µM (inactive) | 38.1 µM (inactive) | 39.2 µM (inactive) | > 100 µM (inactive) | 32.2 µM (inactive) | 37.3 µM (inactive) | 19.2 µM (inactive) | 23.1 µM (inactive) | 31 µM (inactive) | 24.5 µM (inactive) |  | 32.5 µM (inactive) | 36.6 µM (inactive) | 24.9 µM (inactive) | 30.7 µM (inactive) |
| O=C1OCCC12CN(Cc1ccccc1)N=N2 (configuration not stated) | > 100 µM (inactive) | > 100 µM (inactive) | > 100 µM (inactive) | > 100 µM (inactive) |  | > 100 µM (inactive) | > 100 µM (inactive) | 29.9 µM (inactive) | 58.7 µM (inactive) | > 100 µM (inactive) | > 100 µM (inactive) | > 100 µM (inactive) | > 100 µM (inactive) | > 100 µM (inactive) | 49.9 µM (inactive) | > 100 µM (inactive) | > 100 µM (inactive) | > 100 µM (inactive) |  | > 100 µM (inactive) |
| COc1cc(OC)c2c(O)c(S(=O)(=O)c3ccc(C)cc3)c(=O)oc2c1 | > 100 µM (inactive) | > 100 µM (inactive) | > 100 µM (inactive) | 77.8 µM (inactive) | > 100 µM (inactive) | > 100 µM (inactive) | > 100 µM (inactive) | > 100 µM (inactive) | > 100 µM (inactive) | > 100 µM (inactive) | > 100 µM (inactive) | 92.5 µM (inactive) | > 100 µM (inactive) | > 100 µM (inactive) | > 100 µM (inactive) | > 100 µM (inactive) |  | > 100 µM (inactive) | > 100 µM (inactive) |  |
| COc1cc2c(c(O)c1OC)C(O)C1CCC(=O)N1C2c1ccc2c(c1)OCO2 (configuration not stated) | > 100 µM (inactive) | > 100 µM (inactive) | > 100 µM (inactive) | > 100 µM (inactive) | > 100 µM (inactive) |  | > 100 µM (inactive) | > 100 µM (inactive) | > 100 µM (inactive) | > 100 µM (inactive) | > 100 µM (inactive) | > 100 µM (inactive) | > 100 µM (inactive) | > 100 µM (inactive) | > 100 µM (inactive) | > 100 µM (inactive) |  | > 100 µM (inactive) | > 100 µM (inactive) | > 100 µM (inactive) |
| CCCCCCCCCCCCCOCCOCCOCCCCC(O)CCCCCCCCCC1=C[C@H](C)OC1=O (some centres not stated) | 27.2 µM (inactive) | 16.4 µM (inactive) | 18.6 µM (inactive) | 0.766 µM (active) | 12.8 µM (inactive) | 6.93 µM (inactive) | 20.1 µM (inactive) | 28.6 µM (inactive) | 19.1 µM (inactive) | 18.1 µM (inactive) | 28 µM (inactive) | 19.1 µM (inactive) | 11.4 µM (inactive) | 17.5 µM (inactive) | 0.0488 µM (active) | 22.4 µM (inactive) | 15 µM (inactive) | 18.7 µM (inactive) |  | 30.8 µM (inactive) |
| Clc1ccc(-c2cn3c(nc4ccccc43)c(/C=C/c3ccco3)n2)cc1 | 58.1 µM (inactive) | 36.8 µM (inactive) | 34.4 µM (inactive) | 41.8 µM (inactive) | > 100 µM (inactive) | 33.9 µM (inactive) | 33.7 µM (inactive) | 37.9 µM (inactive) |  | 27.7 µM (inactive) | > 100 µM (inactive) | 29.5 µM (inactive) | 57.9 µM (inactive) | 23.5 µM (inactive) |  | 28.4 µM (inactive) | 72.8 µM (inactive) |  |  | 42.5 µM (inactive) |
| COc1ccc(/C=N/NC(=O)C2=C(N)N(c3ccccc3)C(=C(C#N)C#N)S2)cc1 | > 100 µM (inactive) | > 100 µM (inactive) | 60.4 µM (inactive) | > 100 µM (inactive) | > 100 µM (inactive) | > 100 µM (inactive) |  | > 100 µM (inactive) |  | > 100 µM (inactive) | > 100 µM (inactive) | > 100 µM (inactive) | > 100 µM (inactive) | > 100 µM (inactive) | > 100 µM (inactive) | 79.6 µM (inactive) | > 100 µM (inactive) | 93.8 µM (inactive) | > 100 µM (inactive) | 53.8 µM (inactive) |
| C/C(=C\COc1cc(O)c2c(c1)C(=O)c1cc(C)cc(O)c1C2=O)CCC1OC1(C)C (configuration not stated) | > 100 µM (inactive) | > 10 µM (inactive) | > 100 µM (inactive) | 77.8 µM (inactive) |  | 31.2 µM (inactive) | 30.2 µM (inactive) | 40.9 µM (inactive) | 21 µM (inactive) | 42.3 µM (inactive) | > 100 µM (inactive) | > 100 µM (inactive) | > 100 µM (inactive) | 10.3 µM (inactive) | 69.8 µM (inactive) | > 100 µM (inactive) | > 100 µM (inactive) | 47.9 µM (inactive) | > 100 µM (inactive) | 46 µM (inactive) |
| CCOC(=O)c1c(SCCN2CCCCC2)n(-c2ccccc2)c(=S)n(-c2ccccc2)c1=O | 28.6 µM (inactive) | 3.79 µM (inactive) | 9.57 µM (inactive) | 2.18 µM (inactive) | 12.3 µM (inactive) | 15.6 µM (inactive) | 13 µM (inactive) | 17.7 µM (inactive) |  | 28.6 µM (inactive) | > 100 µM (inactive) | 19 µM (inactive) | 8.85 µM (inactive) | 33.9 µM (inactive) | 16.7 µM (inactive) | 21.2 µM (inactive) | 18.5 µM (inactive) | 22.9 µM (inactive) |  | 14 µM (inactive) |
| CCn1c(-c2c(Cl)cc(O)cc2Cl)cc2c(Cl)cc(O)cc21 | 6.05 µM (inactive) | 5.69 µM (inactive) | 6.08 µM (inactive) | 4.26 µM (inactive) | 26.4 µM (inactive) | 3.21 µM (inactive) | 2.33 µM (inactive) | 4.66 µM (inactive) | 6.14 µM (inactive) | 2.88 µM (inactive) | 8.97 µM (inactive) | 5.07 µM (inactive) | 2.3 µM (inactive) | 3.56 µM (inactive) | 1.72 µM (inactive) | 5.9 µM (inactive) |  | 4.59 µM (inactive) | 13.2 µM (inactive) | 6.25 µM (inactive) |
| CC1CNC(NS(=O)(=O)c2cc(C(=O)Nc3ccccc3)c(Cl)cc2S)=NN1 (configuration not stated) | 26.4 µM (inactive) | 40.6 µM (inactive) | 41.4 µM (inactive) | 30.5 µM (inactive) | 44.7 µM (inactive) | 23.2 µM (inactive) |  | 69 µM (inactive) | > 100 µM (inactive) | 26.1 µM (inactive) | 27.2 µM (inactive) | 33.3 µM (inactive) | 45.3 µM (inactive) | 63 µM (inactive) | 23.4 µM (inactive) | > 100 µM (inactive) | 24.9 µM (inactive) | 30.8 µM (inactive) | > 100 µM (inactive) | 43.9 µM (inactive) |
| COc1cc(OC)c(-n2[nH]c(=O)n(C)c2=O)c(OC)c1 | > 100 µM (inactive) | > 100 µM (inactive) | > 100 µM (inactive) | > 100 µM (inactive) | > 100 µM (inactive) |  | > 100 µM (inactive) |  | > 100 µM (inactive) | > 100 µM (inactive) | > 100 µM (inactive) | > 100 µM (inactive) | > 100 µM (inactive) | > 100 µM (inactive) | 49.7 µM (inactive) | > 100 µM (inactive) | > 100 µM (inactive) | > 100 µM (inactive) | > 100 µM (inactive) |  |
| CC(C)CNC(=O)Cn1c(-c2ccccc2)cc2ccccc21 | > 100 µM (inactive) | > 100 µM (inactive) | > 100 µM (inactive) | > 100 µM (inactive) | > 100 µM (inactive) | > 100 µM (inactive) | > 100 µM (inactive) | > 100 µM (inactive) | > 100 µM (inactive) | > 100 µM (inactive) | > 100 µM (inactive) | > 100 µM (inactive) | > 100 µM (inactive) | > 100 µM (inactive) | 68.1 µM (inactive) |  | > 100 µM (inactive) | > 100 µM (inactive) | > 100 µM (inactive) | > 100 µM (inactive) |
